In patent US20050170331A1, “Method for characterizing metabolic stability of a drug” (priority 2003, published 2005):

Tested on: hepatocytes
Test: Metabolic stability in hepatocyte suspension by hyperpolarised 13C NMR
Assay type: in vitro ADME
Conditions: hepatocytes 1·10^6 cells/ml in RPMI 1640, 37° C., 30 s incubation, drug candidate approximately 0.46 mM, DNP hyperpolarised
Experimental: The concentration of hepatocytes was 1·10^6 cells/ml in a suspension of RPMI 1640 medium. 1 ml of this suspension was placed in a 10 mm NMR tube with a bottom plug, reducing the active volume to […]. The tube was placed in a 9.4 T magnet with the temperature of the probe equilibrated to 37° C. A tube was connected to the bottom of the NMR tube to allow for injection of the hyperpolarised drug candidate solution into the cell suspension.
^13C2-sodiumfumerate was diluted in water and mixed (1:1 w/w) with a glycerol solution containing 40 mM trityl. The liquid sample was frozen as droplets in liquid nitrogen. 84.3 mg of this sample (3.84 mg of ^13C2-sodiumfumerate) was placed in the polariser and hyperpolarised for two hours at 93.945 GHz and 100 mW (DNP method). The dissolution was performed with Tris buffer containing 100 mg/l EDTA (pH 7.4, 20 mM, 6 ml). The active dissolution volume was 5.5 ml with full recovery of the sample. A 1 ml syringe was filled completely (volume: 1100 μl) with the dissolved ^13C2-sodiumfumerate solution, a total of 100 μl of this solution was quickly transferred to the liquid-NMR magnet and injected into the cell suspension, resulting in a total drug candidate concentration of approximately 0.46 mM. […]

## O=C([O-])/C=C/C(=O)[O-].[Na+].[Na+] [^13C2-sodiumfumerate]
  metabolites of the drug candidate observed in the 13C NMR spectrum of the mixture: two different metabolites of the drug candidate, namely succinate and malate
